Reference: the supplement of paper PMC10307832

Tests used:
Experiment in all cases: relative viability (nuclei count vs DMSO), 5 days (fraction); higher = more cells survive
QS11 + Palbociclib = compound: C1CC2=C(C1)C=C(C=C2)OC3=NC(=C4C(=N3)N(C=N4)CC5=CC=C(C=C5)C6=CC=CC=C6)N[C@@H](CC7=CC=CC=C7)CO [QS11] + CC(=O)c1c(C)c2cnc(Nc3ccc(N4CCNCC4)cn3)nc2n(C2CCCC2)c1=O [Palbociclib] (partner 0.5 µM)
In short: (§1)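 Lung cancer cell lines in 1536-well plates were dosed by pin tool the day after seeding, either with one drug alone or with a fixed anchor-drug dose plus five library-drug doses (not always all listed) in √10 steps. After 5 days, cells were fixed and their nuclei stained in one step (final 0.05% Triton X-100, 1% formaldehyde, 1 ug/ml Hoechst), then counted on 4× images. Relative viability is the nuclei count in treated wells divided by that in vehicle wells. Values are medians of duplicate plates.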

QS11 + Pictilisib = compound: C1CC2=C(C1)C=C(C=C2)OC3=NC(=C4C(=N3)N(C=N4)CC5=CC=C(C=C5)C6=CC=CC=C6)N[C@@H](CC7=CC=CC=C7)CO [QS11] + CS(=O)(=O)N1CCN(Cc2cc3nc(-c4cccc5[nH]ncc45)nc(N4CCOCC4)c3s2)CC1 [Pictilisib] (partner 1 µM)
In short: as §1

[1] = compound: C[As](C)SC[C@H](NC(=O)CC[C@H](N)C(=O)O)C(=O)NCC(=O)O [Darinaparsin] + CC1(C)CCC(c2ccc(Cl)cc2)=C(CN2CCN(c3ccc(C(=O)NS(=O)(=O)c4ccc(N[C@H](CCN5CCOCC5)CSc5ccccc5)c(S(=O)(=O)C(F)(F)F)c4)cc3)CC2)C1 [Navitoclax] (partner 0.5 µM)
In short: as §1

[2] = compound: C[As](C)SC[C@H](NC(=O)CC[C@H](N)C(=O)O)C(=O)NCC(=O)O [Darinaparsin] + C[C@]1(O)C[C@@H](c2nc(-c3ccc4ccc(-c5ccccc5)nc4c3)c3c(N)nccn32)C1 [Linsitinib] (partner 1 µM)
In short: as §1

Cell Line	relative viability (QS11 + Palbociclib; first compound 0.08 µM)	relative viability (QS11 + Palbociclib; first compound 0.253 µM)	relative viability (QS11 + Palbociclib; first compound 0.8 µM)	relative viability (QS11 + Palbociclib; first compound 2.53 µM)	relative viability (QS11 + Palbociclib; first compound 8 µM)	relative viability (QS11 + Pictilisib; first compound 0.08 µM)	relative viability (QS11 + Pictilisib; first compound 0.253 µM)	relative viability (QS11 + Pictilisib; first compound 2.53 µM)	relative viability (QS11 + Pictilisib; first compound 8 µM)	relative viability ([1]; first compound 0.08 µM)	relative viability ([1]; first compound 0.8 µM)	relative viability ([1]; first compound 2.53 µM)	relative viability ([1]; first compound 8 µM)	relative viability ([2]; first compound 0.08 µM)	relative viability ([2]; first compound 0.8 µM)	relative viability ([2]; first compound 2.53 µM)	relative viability ([2]; first compound 8 µM)	relative viability (QS11 + Pictilisib; first compound 0.8 µM)
HCC-15	0.765	0.808	0.579	0.701	0.542	0.732	0.868	0.816	0.719	0.893	0.7	0.651	0.83	0.878	0.881	0.78	1.01	
HCC-44	1.07	0.998	0.732	0.901	0.866	0.804	0.432	0.406	0.431	1.18	1	0.864	1.19	0.841	0.636	0.441	0.86	0.565
HCC-78	0.462	0.531	0.464	0.457	0.358	0.206	0.185	0.222	0.29	0.841	0.729	0.842	0.84	0.502	0.56	0.588	0.424	0.206
HCC-366	0.433	0.454		0.162	0.0973	0.138	0.133	0.202	0.0869	1.3	1.06	1.12	1.41	0.969	0.609	0.427	1.06	
HCC-827	0.527	0.501	0.445	0.599	0.479	0.881	1.03	1.13	0.95	1.07	1.07	1.05	1.05	1.01	0.93	0.965	1.09	0.953
HOP-62	0.471	0.517	0.455	0.369	0.281	0.822	0.688	0.514	0.435	1.39	1.2	0.963	1.13	1.25	0.94	0.899	1.02	0.738
LC-2-ad	0.512	0.47	0.405	0.451	0.501	0.506	0.478	0.534	0.547	0.551	0.324	0.421	0.487	0.98	0.808	0.812	0.843	0.441
